Data on 4 compounds can be found in US20130039956A1, “USE OF NITROCARBOXYLIC ACIDS FOR THE TREATMENT, DIAGNOSIS AND PROPHYLAXIS OF AGGRESSIVE HEALING PATTERNS” (priority 2010, published 2013).

The subject of assay [1] is human umbellical endothelial cells (HUVEC). Briefly: Adhesion, propagation and growth of endothelial cells on coated polystyrene films. It counts as cell-based. As to conditions: days 3, 7, 14, compared with native FA. As to the method:
Polystyrene scaffolds were prepared and pretreated in the same manner as performed in example 1 by using the same nitrocarboxylic acids as listed in table 1. The film samples were placed in a culture dish containing a gel matrix, in which human umbellical endothelial cells (HUVEC) had been allowed to grow to confluence. The culture medium consisted of 5% FCS, which was replaced every 5 days. Cultivation was performed according to standard conditions. Films were evaluated at days 3, 7, and 14 after careful extraction from the culture dishes, rinsing with saline solution, and staining with methylene blue. Using a reflected light microscope, the films were immediately examined to evaluate the following: Propagation of cells to the film center, cell confluidity, multilayer formation, and cell shape.

The test system of assay [2] is Murine macrophage-like cells RAW 264.7 and murine L929 fibroblasts. In words: Monocyte/fibroblast co-culture on coated surgical suture material. As to conditions: dip-coated suture material, 24 and 48 hours; compared with native FA. Format: cell-based. The source says: In order to determine immunoreactions to foreign material and its consequence on fibrogenesis, co-cultures of fibroblasts and monocytes were used. Commercially available suture materials (propylene, polyamide, and silk) were dip-coated with corresponding native and nitrated fatty acids. Untreated suture material served as control. Treated and untreated suture materials were out in small pieces and placed in a 96-well plate.
Murine macrophage-like cells RAW 264.7 and murine L929 fibroblasts were cultured to a population density of 5×10(5) each. Cell suspensions were merged achieving a cellularity of approximately 2.5×10(5) cell/ml of each cell population which were added to the wells. The suture material samples were fully covered by the suspension. Wells were continuously and gently shaken throughout the incubation period.
Supernatants were collected for assays after 24 and 48 hours and analyzed for profibrotic cytokines IL-13, IL-4, and IL-6, TGF-β1, collagen I.

Assay [3] concerns human corneal fibroblasts. Briefly: Model for fibrosis induction (3D corneal stroma, TGF-β1). As to conditions: TGF-β1 over 7 days; compared with native FA. It counts as cell-based. On the procedure: Cornea injury may ultimately lead to a scar by way of corneal fibrosis, which is characterized by the presence of myofibroblasts and improper deposition of extracellular matrix components (ECM). An established in vitro model to study the healing response to trauma of corneal stroma was used. The in vitro 3-dimensional (3D) model of a corneal stroma was produced by human corneal fibroblasts stimulated with stable vitamin C which mimics corneal development. TGF-β1 was added to the medium over 7 days. […] There were no morphological changes of the myofibroblasts when treated with nitro fatty acids.

Another assay has as its system pericardial strips. Briefly: Cold induced injury in a whole tissue ex-vivo model (pericardium). As to conditions: 200 μmol, 10 min, two cooling cycles; compared with native FA. It counts as cell-based, Wistar rats. An excerpt:
To determine whether nitrated fatty acids can be used to preserve cells and tissues from cold or cryoinjury, an in vitro model utilizing murine epicardium was established. The experimental set-up should reduce the possibility of ischemia or reperfusion injury to a minimum, but at the same time allow differentiation of the contribution of ischemia/reperfusion injury-triggered cell death, which is known to occur almost exclusively via apoptosis, whereas cell death induced by cold injury almost exclusively results in necrosis.
The pericardial sac was carefully resected in 24 anesthetized Wistar rats (180-270 g) of either sex. Care was taken to grasp the pericardium with a forceps only at the cutting edges and reduce traumatization of the central portions of the pericardium to a minimum. After resection, the cutting edge and the former apex area of the pericardium were dissected, as to obtain flat tissue strips which were placed immediately in the culture medium (DMEM) containing 10% FCS and antibiotics (penicillin, streptomycin). Tissue samples were cultured in an oxygen atmosphere at 18° C. for 2 days. […] Then the pericardial strips were cut into 4 pieces of equal size. One piece was further cultivated at 37° C. without undergoing the cooling cycles, thus, serving as the control. In each of three investigations, one piece was bathed in a solution (0.9% saline and 1% SDS) containing 200 μmol nitro-fatty acid or contained 200 μmol of the corresponding native fatty acid, for 10 min at a temperature of 18° C. One piece of pericardium was bathed in a solution without fatty acids under otherwise identical conditions. All samples were cooled by continuously decreasing from ambient temperature at a rate of 3° C./min to a minimum temperature of […]. After 1 hour, the samples were rewarmed at a rate of 3° C./min by continuously increasing the temperature until a temperature of 18° C., was achieved. Thereafter an identical cooling and rewarming cycle was performed. After the second cooling cycle, the tissue pieces were further cultured in the culture medium for 1 day allowing continuous adaptation to an ambient temperature of 37° C. For analytical preparations the pericardial pieces were out and further processed. A direct TUNEL assay (Roche) was use for quantification of apoptosis, an annexin V/propidium iodide exclusion assay (Roche) was used to quantify the number of necrotic cells, and viability was determined by the WST-8 assay. Furthermore, the LDH release was quantified in the supernatants.
To rule out that cell death has been induced by ischemia or reperfusion (reoxygenation), in one series of experiments, a control sample was incubated with an all-caspase inhibitor (Q-VD-OPH, BioVision, USA) reconstituted in DMSO before the sample was exposed to cold.

Assay [4] relates to Tracheas of adult Wistar rats. In words: Tissue damage due to barotrauma ex vivo (tracheal rings). The following applies: tracheal rings bathed 15 minutes, balloon 4 atm 4 hours; compared with native FA. It counts as cell-based. On the procedure:
In order to determine the effects of nitrated fatty acids on mechanical trauma to tracheal cells, an ex vivo model was established. Tracheas of adult Wistar rats sacrificed with thiopental given intraabdominally were carefully resected (harvested). Whole (intact) tracheas were cultured in DMEM 10 (Sigma) supplemented with antibiotic/antimycotic drugs for 48 hours at 37° C. Tracheas were cut into five pieces of equal size. One piece was immediately analyzed, two were bathed in 0.9% saline, one was bathed in a solution containing native fatty acid in SDS (1%), and one was bathed in a solution containing nitro fatty acid, respectively, for 15 minutes each. The inner diameters of the tracheal rings were measured. A non-compliant balloon catheter for use in vascular interventions was chosen, so that the nominal balloon diameter was 15-20% larger than that of the trachea. One tracheal ring pretreated with 0.9% saline was left untreated; the other prepared tracheal rings were mounted on the balloon catheter, which was inflated to a pressure of 4 atm thereafter. Balloons were kept inflated for 4 hours, while being positioned in the culture medium. Thereafter, the tracheal rings were further cultivated in separate vials for 24 hours. In a separate set of investigations, sense/antisense ODNs for HO-1 (Invitrogen) directed against the translation initiation codon in the HO-1 cDNA was used to inhibit hemoxydase-1 synthesis. The cells were transfected using the Superfect transfection reagent (Qiagen) before traumatization. In another set of experiments, the HO inhibitor SnPP IX (Porphyrin Products, London, UK) was added to the culture medium 6 hours before traumatization at a dose of 10 micromol.
For analysis, the rings were cut into small strips using a no touch technique. Viability was tested using a MTT assay and apoptosis using a TUNEL assay. Anti-HO-1 antibodies (StressGen, Tebu, Le-Perray-en-Yvelines, France) were measured by Western blot and immunohistochemistry.
Note: key: 0: not superior to native FA (control); +: Superior to native FA; ++: superior to both; +++: outstanding effect.

With `CCCCC/C=C\C/C(=C\CCCCCCCC(=O)O)[N+](=O)[O-]` [compound 2, 10-nitro-cis-linoleic acid], the “Relative differences: effect on adhesion, propagation and growth of endothelial cells” value (from here on “Relative differences: effect on adhesion”) in assay [1] is listed as “+++”. In addition, the “Relative effect on profibrotic cytokines and collagen I on suture material” value (“Relative effect … on suture material” for short) in assay [2] is “+++”. Besides, the “Relative efficacy in model for fibrosis induction” value (from here on “Relative efficacy in model”) in assay [3] is reported as “++”. The “Relative effect on cold induced injury” value with pericardial strips was “++”. Besides, the “Relative effect on tissue damage due to barotrauma” value (“Relative effect … to barotrauma” for short) in assay [4] is “+”.

For the compound `CCCCCCCC/C(=C/CCCCCCCC(=O)O)[N+](=O)[O-]` [compound 3, 10-nitro-cis-oleic acid], the “Relative differences: effect on adhesion” value in assay [1] is recorded as “++”. In assay [2], the “Relative effect … on suture material” value is recorded as “++”. For the same compound, in assay [3], the “Relative efficacy in model” value is “+”. Further, the “Relative effect on cold induced injury” value in the assay on pericardial strips was “+”. Besides, the “Relative effect … to barotrauma” value in assay [4] is “+”.

Consider `CC/C=C\C/C=C\C/C=C(/CCCCCCCC(=O)O)[N+](=O)[O-]` [compound 6, 9-nitro-all-cis-9-12,15-octadecatrienoic acid], for which the “Relative differences: effect on adhesion” value in assay [1] is reported as “++”. The “Relative effect … on suture material” value in assay [2] was “+”. In addition, the “Relative efficacy in model” value in assay [3] is on record as “++”. In addition, the “Relative effect on cold induced injury” value with pericardial strips was “++”. For the same compound, the “Relative effect … to barotrauma” value in assay [4] is “+”.

As to `CCCCCC=CCC=C(CC=CC/C=C\CCCC(=O)O)[N+](=O)[O-]` [compound 22, 11-nitro-cis-5,8,11,14-eicosatetraenoic acid], the “Relative differences: effect on adhesion” value in assay [1] is “++”. Besides, in assay [2], the “Relative effect … on suture material” value is on record as “+”. The “Relative efficacy in model” value in assay [3] was “++”. The “Relative effect on cold induced injury” value in the assay on pericardial strips is given as “++”. In addition, the “Relative effect … to barotrauma” value in assay [4] is “+”.
